{
  "source": "patent US20190212343A1",
  "about": "“METHODS FOR THE TREATMENT OF DISORDERS RELATED TO PHOSPHORYLATION OF HISTONES” (H. LEE MOFFITT CANCER CENTER AND RESEARCH INSTITUTE, INC., priority 2014, published 2019)",
  "key": {"ACK1": {"molecular_target": "T1, ACK1 (Homo sapiens, UniProt Q07912)", "T1 construct": "made in house; host or cells: insect cells", "T1 sequence (Q07912 whole entry)": "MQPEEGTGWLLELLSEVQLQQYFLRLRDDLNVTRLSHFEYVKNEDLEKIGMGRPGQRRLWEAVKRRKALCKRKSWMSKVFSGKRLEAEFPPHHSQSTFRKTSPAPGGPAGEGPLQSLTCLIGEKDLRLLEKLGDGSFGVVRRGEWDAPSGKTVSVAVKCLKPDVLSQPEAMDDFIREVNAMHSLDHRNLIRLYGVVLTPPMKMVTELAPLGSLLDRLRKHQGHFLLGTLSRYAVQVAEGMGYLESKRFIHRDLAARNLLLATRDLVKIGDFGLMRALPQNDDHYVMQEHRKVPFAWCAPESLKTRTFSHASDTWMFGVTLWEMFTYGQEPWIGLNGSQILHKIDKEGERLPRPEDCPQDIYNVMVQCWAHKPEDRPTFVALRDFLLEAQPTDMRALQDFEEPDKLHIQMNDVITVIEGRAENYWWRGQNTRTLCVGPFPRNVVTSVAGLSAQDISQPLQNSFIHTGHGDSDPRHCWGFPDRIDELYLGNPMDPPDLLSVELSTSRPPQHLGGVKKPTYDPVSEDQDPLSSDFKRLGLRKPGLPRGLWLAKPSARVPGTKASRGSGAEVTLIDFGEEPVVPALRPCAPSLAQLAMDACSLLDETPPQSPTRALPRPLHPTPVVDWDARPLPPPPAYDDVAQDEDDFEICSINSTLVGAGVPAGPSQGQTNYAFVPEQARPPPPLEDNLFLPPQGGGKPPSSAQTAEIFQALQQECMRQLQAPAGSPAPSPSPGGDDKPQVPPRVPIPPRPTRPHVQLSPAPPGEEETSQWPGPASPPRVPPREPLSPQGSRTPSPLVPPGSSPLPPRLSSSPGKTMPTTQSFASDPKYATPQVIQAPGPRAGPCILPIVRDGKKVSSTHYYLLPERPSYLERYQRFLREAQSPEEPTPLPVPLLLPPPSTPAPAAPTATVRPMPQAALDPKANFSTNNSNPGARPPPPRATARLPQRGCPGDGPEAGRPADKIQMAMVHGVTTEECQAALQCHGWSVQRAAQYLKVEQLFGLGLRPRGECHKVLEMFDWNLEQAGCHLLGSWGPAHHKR", "test": "In vitro kinase assay with purified ACK1 and H4, immunoblotting with pTyr antibodies", "format": "biochemical", "conditions": "purified ACK1 and H4, AIM-100 100 nM", "protocol": "FIGS. 9A-9E show ACK1 phosphorylates histone H4 at Tyrosine 88. (FIG. 9A) peptide were spotted followed by immunoblotting with indicated antibodies. (FIG. 9B) Equimolar amounts of purified ACK1 and H4 proteins were incubated in the presence of AIM-100 (100 nM) and reaction subjected to immunoblotting with pTyr antibodies. (FIG. 9C) In vitro kinase assay performed using purified ACK1 and H4, followed by immunoblotting with pY88-H4 antibodies. (FIG. 9D) H4 Y88-phosphorylation in vivo. LNCaP cells were treated with DZI-067, AIM-100 or Enzalutamide (7 uM, 16 hrs). The nuclear lysates were immunoprecipitated with pY88-H4 antibodies followed by immunoblotting with H4. Lower panel is input lysate. (FIG. 9E) LNCaP cells were treated with Crizotinib (1 uM, 16 hrs). The cell lysates were immunoprecipitated with pY88-H4 antibodies followed by immunoblotting with H4 (upper panel). Lower panel is input lysate immunblotted with H4 antibodies.\nTo assess direct binding of Ack1 to H4, in vitro kinase assay was performed using purified Ack1 and H4 (New England Biolabs). Human Ack1 were expressed in insect cells and purified to homogeneity (unpublished data). Immunoblotting with pY88-H4 and pTyr antibodies confirmed that indeed H4 is directly Tyr-phosphorylated by Ack1 (FIG. 9B)."}, "[1]": {"test_system": "histone H3 Tyr99-phosphorylation (ACK1)", "test": "Histone H3 Tyr99-phosphorylation in JAR cells (immunoblotting)", "format": "cell-based, human", "conditions": "EGF+AIM-100", "protocol": "FIGS. 5A-5D show ACK1 deposits pY99-H3 epigenetic marks in SLC6A4 promoter and intron 2. (FIG. 5A) Lysates prepared from JAR cells treated with EGF ligand were subjected to immunoblotting with indicated antibodies. (FIG. 5B) Lysates prepared from JAR cells treated with EGF or AIM-100 were subjected to immunoblotting with indicated antibodies. (FIG. 5C) Total RNA was prepared from JAR cells untreated or treated with EGF ligand followed by quantitative RT-PCR using SLC6A4 and actin primers. The ratio of SLC6A4 to actin is shown. (FIG. 5D) JAR cells were treated with EGF ligand and ChIP was performed using pY99-H3 antibodies followed by quantitative PCR using primers corresponding to intron 2 (VNTR).\nJAR cells are human placenta-derived epithelial cells that express SLC6A4 or SERT. Applicant first assessed presence of ACK1 signaling in JAR cells by treating these cells with EGF ligand. […] ACK1 activation was also reflected in histone H3 Tyr99-phosphorylation (FIG. SA, 2nd panel).\nTo validate critical role of ACK1 in histone H3 Tyr99-phosphoryation, JAR cells were treated with EGF or EGF+AIM-100."}, "[2]": {"test_system": "AR and H3K4me3 at intron 2 of AR gene", "test": "ChIP with AR or H3K4me3 antibodies and qPCR at intron 2 of AR gene", "format": "cell-based, human", "conditions": "LNCaP cells, absence of androgen", "protocol": "LNCaP cells treated with AIM-100 and ChIP was performed using AR, H3K4me3 or IgG antibodies followed by qPCR using primers corresponding to intron 2, or control region. *p<0.05, **p<0.05."}, "LNCaP cells": {"test_system": "LNCaP cells", "test": "Cell proliferation assay, viable cells counted by trypan blue exclusion", "format": "cell-based, human", "conditions": "charcoal stripped media, 36 hrs, read-out: IC50, inhibition of cell growth", "protocol": "(§1) FIGS. 5A and 5B show cell proliferation assay. (FIG. 5A) LNCaP and (FIG. 5B) VCaP cells were grown in charcoal stripped media and treated with 1, 2.5, 5 and 10 uM of inhibitors (36 hrs) and number of viable cells were counted by trypan blue exclusion assay\n(§2) Applicant also assessed ability of the new Ack1 inhibitors to suppress proliferation of prostate cancer cell lines. […] Overall, it appears that ACK I is needed for androgen-independent growth of prostate cancer cells."}, "VCaP cells": {"test_system": "VCaP cells", "test": "Cell proliferation assay, viable cells counted by trypan blue exclusion", "format": "cell-based, human", "conditions": "androgen-independent VCaP cells, charcoal stripped media, 36 hrs; read-out: IC50, inhibition of cell growth", "protocol": "as §1, §2"}, "SLC6A4 mRNA": {"test_system": "SLC6A4 mRNA", "test": "SLC6A4 mRNA expression (real time RT-PCR)", "format": "cell-based, human", "conditions": "inhibition of ACK1 by small molecule inhibitor", "protocol": "The ratio of SLC6A4 to actin is shown. (FIG. 5D) JAR cells were treated with EGF ligand and ChIP was performed using pY99-H3 antibodies followed by quantitative PCR using primers corresponding to intron 2 (VNTR). […]\nApplicant also identified for the first time that human and mouse serotonin transporter (SLC6A4 or SERT or 5-HTT) gene expression is regulated by ACK1. A novel mechanism was identified that is operational in SLC6A4 gene regulation. ACK1 deposits pY99-H3 epigenetic marks in promoter (5-HTTLPR) and intron 2 (VNTR) of SLC6A4 gene to regulate its transcription. […] Without being bound by theory, applicant believes that expression of Gabra6, Slc6a2, Slc6a4, Slc6a5 and Oxt genes as well as genes shown in Table 2 are also regulated by ACK1/pY99-H3 epigenetic activity/signaling."}},
  "data": [
    {"smiles": "c1ccc(-c2oc3ncnc(NC[C@@H]4CCCO4)c3c2-c2ccccc2)cc1", "note": "[AIM-100]", "values": [
      {"measurement": "H4 Tyr-phosphorylation by ACK1", "setting": "ACK1", "value": "H4 Tyr-phosphorylation is abrogated"},
      {"measurement": "histone H3 Tyr99-phosphorylation", "setting": "[1]", "value": "almost complete loss of histone phosphorylation"},
      {"measurement": "AR enrichment at intron 2 of AR gene", "setting": "[2]", "value": "abolished"},
      {"measurement": "H3K4me3 methyl marks at intron 2 of AR gene", "setting": "[2]", "value": "abolished"},
      {"measurement": "IC50", "setting": "LNCaP cells", "value": 7, "unit": "µM"},
      {"measurement": "IC50", "setting": "VCaP cells", "value": 4, "unit": "µM"},
      {"measurement": "SLC6A4 mRNA expression", "setting": "SLC6A4 mRNA", "value": "significant loss of SLC6A4 mRNA expression"}
    ]}
  ]
}
